{
  "source": "patent US20150164762A1",
  "about": "“USE OF ETHANOLAMINE PHOSPHATE” (priority 2012, published 2015)",
  "key": {"BEAS-2B [1]": {"system": "BEAS-2B", "test": "Proliferative effects of EP and its metabolic derivatives (WST-8)", "assay_type": "cell-based, human"}, "BEAS-2B [2]": {"system": "BEAS-2B", "test": "Cell toxicity of H2O2 after EP pre-treatment (WST-8 assay)", "assay_type": "cell-based, human", "conditions": "Homo sapiens, BEAS-2B, read-out: EC50 (50% cell death concentration of H2O2)", "method": "Cells of the normal airway epithelial cell line BEAS-2B were seeded at a density of 1×10^5/cm^2 on a 96-well plate, and after 24 hours the medium was replaced with 0.5% FBS RPMI 1640 containing EP at final concentrations of 0, 250 and 500 μM. 24 hours after medium replacement the medium was replaced with 0.5% FBS RPMI-1640, and serially diluted H2O2 was administered (n=4). 24 hours after H2O2 administration a cell toxicity test WST-8 assay (Cell Counting Kit-8, Dojindo) was performed. For the data analysis, the 50% cell death concentration EC50 was calculated with GraphPad Prism 5 statistical analysis software."}, "BEAS-2B [3]": {"system": "BEAS-2B", "test": "DNA microarray of H2O2-treated samples and correlational analysis with EP", "assay_type": "cell-based, human", "conditions": "H2O2 125 μM, 6 hours", "method": "The data of Example 13 were used as the EP gene expression data. Cell preparation and H2O2 administration were performed as in Test 13. Samples that had been treated for 6 hours with H2O2 at a final concentration of 125 μM were used as samples for gene expression analysis by DNA microarray."}, "BEAS-2B [4]": {"system": "BEAS-2B", "test": "Permeability test, 4-kilodalton fluorescent dextran through BEAS-2B cell sheet (Papp)", "assay_type": "cell-based, human", "conditions": "Dex 1 μM, with or without EP 1 mM", "method": "Cells of the established normal human airway epithelial cell line BEAS-2B were seeded to 1×10^5 cells/cm^2 on a cell culture insert (353104, BD Falcon) (FIG. 14). 10% FBS RPMI-1640 was used as the medium. The amount of medium was 200 μl on the insert side and 750 μl on the well side. Beginning the next day, substitution/medium replacement was performed once a day with 1% FBS RPMI-1640 prepared with the following 4 reagent conditions, and transepithelial electrical resistance (TER) was measured with MilliCell (Millipore). • Condition 1: Control • Condition 2: EP 1 mM • Condition 3: Dexamethasone 1 μM (dexamethasone (Dex): positive control substance known to enhance barrier function) • Condition 4: EP 1 mM and Dex 1 μM\n7 days after cell seeding a permeability test was performed as follows.\nA 4-kilodalton fluorescent dextran molecule (Sigma) was added to the cell culture insert to a concentration of 0.1 mg/ml, 20 μl of the medium on the well side was removed after 1 hour, and the amount of permeating fluorescent dextran was estimated from the fluorescent strength at each concentration. The permeation rate Papp of a substance from the insert side to the well side is normally determined by the following formula.\nPapp=(volume of medium on well side/insert area×initial insert concentration)×(altered concentration on well side/elapsed time)"}, "BEAS-2B [5]": {"system": "BEAS-2B", "test": "Proliferation test with GABA receptor agonists and GABA-A antagonist (WST-8)", "assay_type": "cell-based, human", "conditions": "0.1% FBS, 72 hours", "method": "[…] […] Next, 10 μl per well of GABA (GABA-A and GABA-B receptor agonist) and homotaurine (GABA-A agonist) were added. A proliferation test (WST-8 assay) was performed after 72 hours.\n[…] […] 10 μl per well of EP solution was added. A proliferation test (WST-8 assay) was performed after 72 hours."}, "HHDPC cells": {"system": "HHDPC cells", "test": "WST-8 proliferation test, primary normal human hair dermal papilla cells (HHDPC)", "conditions": "high concentrations", "method": "HHDPC cells (Cosmo Bio) were seeded to 1×10^4 cells/cm^2 on a 96-well plate. Complete MSCM medium (500, ScienCell) was used as the medium. After 24 hours, the cells were washed gently with 200 μl per well of PBS, the medium was replaced with 90 μl per well of 0% FBS DMEM with 1 vol % of complete MSCM medium added thereto, and the cells were cultured for 24 hours. After culture, 10 μl per well of EP solution was added, and a proliferation test (WST-8 assay) was performed 6 days after EP administration. The WST-8 assay was performed as in Example 1. The same test was performed using minoxidil, which has a clinical hair growth effect."}},
  "note": "Where two headings read alike, the source gives them in different places.",
  "data": [
    {"smiles": "OCCNCCO", "note": "[diethanolamine]", "values": [
      {"measurement": "animal cell proliferation without serum or growth factors", "setting": "BEAS-2B [1]", "result": "not obtained"}
    ]},
    {"smiles": "OO", "note": "[H2O2, hydrogen peroxide, reference compound]", "values": [
      {"measurement": "EC50", "setting": "BEAS-2B [2]; cells pre-treated with 250 uM EP", "result": 190, "unit": "µM"},
      {"measurement": "EC50", "setting": "BEAS-2B [2]; cells pre-treated with 500 uM EP", "result": 177, "unit": "µM"},
      {"measurement": "EC50", "setting": "BEAS-2B [2]; control, no EP pre-treatment, 24 h", "result": 128, "unit": "µM"},
      {"measurement": "expression of apoptosis-associated genes reduced by EP (30 probes)", "setting": "BEAS-2B [3]", "result": "generally had their expression increased"},
      {"measurement": "expression of cytokines and chemokines", "setting": "BEAS-2B [3]", "result": "induced expression of cytokines and chemokines"}
    ]},
    {"smiles": "NCCO", "note": "[ethanolamine]", "values": [
      {"measurement": "animal cell proliferation without serum or growth factors", "setting": "BEAS-2B [1]", "result": "not obtained"},
      {"measurement": "proliferative action", "setting": "BEAS-2B [1]; 0.1% FBS, 72 hours", "result": "much weaker than that of EP"}
    ]},
    {"smiles": "C[C@@H]1C[C@H]2[C@@H]3CCC4=CC(=O)C=C[C@]4(C)[C@@]3(F)[C@@H](O)C[C@]2(C)[C@@]1(O)C(=O)CO", "note": "[dexamethasone, reference compound]", "values": [
      {"measurement": "drop in Papp", "setting": "BEAS-2B [4]", "result": "no rise in TER or drop in Papp"}
    ]},
    {"smiles": "C[N+](C)(C)CCOP(=O)(O)OP(=O)([O-])OC[C@H]1O[C@@H](n2ccc(N)nc2=O)[C@H](O)[C@@H]1O", "note": "[CDP-choline]", "values": [
      {"measurement": "animal cell proliferation without serum or growth factors", "setting": "BEAS-2B [1]", "result": "not obtained"}
    ]},
    {"smiles": "C[N+](C)(C)CCOP(=O)(O)O", "note": "[phosphorylcholine]", "values": [
      {"measurement": "animal cell proliferation without serum or growth factors", "setting": "BEAS-2B [1]", "result": "not obtained"}
    ]},
    {"smiles": "NCCCS(=O)(=O)O", "note": "[homotaurine]", "values": [
      {"measurement": "proliferative action", "setting": "BEAS-2B [5]", "result": "neither the GABA-A and GABA-B receptor agonist GABA nor the EP structural analog and GABA-A receptor agonist homotaurine exhibited any statistically significant proliferative action"}
    ]},
    {"smiles": "C[N+]1(C)CCc2cc3c(cc2[C@H]1[C@@H]1OC(=O)c2c1ccc1c2OCO1)OCO3.[Cl-]", "note": "[BM, (−)-Bicuculline Methochloride]", "values": [
      {"measurement": "inhibition of the proliferative action of EP", "setting": "BEAS-2B [5]", "result": "not inhibited"}
    ]},
    {"smiles": "Nc1cc(N2CCCCC2)nc(N)[n+]1[O-]", "note": "[Minoxidil, minoxidil, reference compound]", "values": [
      {"measurement": "cell toxicity", "setting": "HHDPC cells", "result": "toxic above that range"}
    ]},
    {"smiles": "NCCCC(=O)O", "note": "[GABA]", "values": [
      {"measurement": "proliferative action", "setting": "BEAS-2B [5]", "result": "neither the GABA-A and GABA-B receptor agonist GABA nor the EP structural analog and GABA-A receptor agonist homotaurine exhibited any statistically significant proliferative action"}
    ]}
  ]
}
